Results published in US20140371267A1, “OPHTHALMIC COMPOSITION WITH NITRIC OXIDE DONOR COMPOUND AND METHOD OF FORMING AND USING SAME” (ALCON RESEARCH, LTD., priority 2009, published 2014).

Legend:
ARPE-19 cells = test: 7-ketocholesterol-induced RPE cell death, WST-1 cell viability; type: cell-based; conditions: for % Survival: compared to media-treated cells
Experimental: Compound 1 was evaluated for its ability to prevent 7-ketocholesterol-induced retinal pigmented epithelial (RPE) cell death in vitro. ARPE-19 cells were grown in DMEM:F12 (Invitrogen) (1:1) with 10% FBS (HyClone) and 56 mM Na Bicarbonate (Gibco) in a 10% CO2 humidified 37° C. incubator. Cells were split at a ratio of 1:3 once per week and fed every 2-3 days. ARPE-19 cells were plated at a density of 12,500 cells per well in 100 μL, which is approximately […].
7-ketocholesterol (5-CHOLESTEN-3β-OL-7-ONE) and Cholesterol (5-CHOLESTEN-3β-OL) (Steraloids, Inc., Newport R.I.) were resuspended in 37° C. 45% 2-hydroxylpropyl-β-cyclodextrin at a concentration of 10 mM. Working dilutions of 1 mM are subsequently made in 37° C. DMEM:/F12 containing 0.1% FBS and NaBicarb. Further dilutions (5 to 30 μM) for treatment were also made in 37° C. DMEM:F12 with 0.1% FBS and NaBicarb to maintain activity of the 7-ketocholesterol. As negative controls, vehicle alone and cholesterol suspended in 2-HP-β-cyclodextrin were included in each experiment.
Cell proliferation reagent WST-1 (Roche), a tetrazolium salt that is cleaved to formazan through the mitochondrial succinate-tetrazolium-reductase system in live cells, was used as a measure of cell viability. Cells were treated with 7-ketocholesterol for 1 day, at which time 10 μL at of WST-1 reagent was added to each well containing 100 μL at of media. The plates were then incubated for 1-4 hours to allow for adequate color development and then absorbance was read in a microplate ELISA reader at […]. WST reagent was also added to one set of control wells containing media only. These readings were subtracted from each of the WST readings as background. Cell viability for all treated wells was normalized to the well with untreated cells and data is presented as percent survival as compared to untreated. The table below summarizes the results.

[1] = system: cynomolgus monkeys with ocular hypertension; test: IOP reduction in lasered ocular hypertensive monkeys; type: in vivo; conditions: 150 μg in 30 μL drop, topical, lasered eye
Experimental: The ability of compound 1 of the present invention to reduce IOP was evaluated in cynomolgus monkeys with ocular hypertension produced by previous laser trabeculoplasty in the right eye. Animals had been trained to sit in restraint chairs and conditioned to accept experimental procedures without chemical restraint. Animals were administered a 30 μL drop containing 150 μg of compound 1 dissolved in vehicle to the lasered eye. IOP was determined with a pneumatonometer after light corneal anesthesia with dilute proparacaine. The drug was dosed 35 minutes after the baseline IOP was measured.

[2] = vasodilators; cited from earlier work
c-GMP = conditions: cited from earlier work
[3] = in vitro; versus GTN and SNAP; cited from earlier work

Structure (SMILES)	% Survival (ARPE-19 cells; 7-ketocholesterol 20 μM alone, 1 day) [%]	% IOP change from baseline ([1]; 1 hour after dosing) [%]	% IOP change from baseline ([1]; 3 hours after dosing) [%]	% IOP change from baseline ([1]; 6 hours after dosing) [%]	NO-tolerance in vivo [2]	c-GMP concentration (c-GMP)	c-GMP effect relative to GTN (c-GMP)	RPE cytoprotection (ARPE-19 cells; 10 μM)	RPE cytoprotection (ARPE-19 cells; 100 μM)	% Survival (ARPE-19 cells; compound at 100 nM, 7-ketocholesterol-treated cells) [%]	% Survival (ARPE-19 cells; compound at 1 μM, 7-ketocholesterol-treated cells) [%]	% Survival (ARPE-19 cells; compound at 10 μM, 7-ketocholesterol-treated cells) [%]	% Survival (ARPE-19 cells; compound at 100 μM, 7-ketocholesterol-treated cells) [%]	vasorelaxation efficacy [3]
CC(C)CCC[C@@H](C)[C@H]1CC[C@H]2[C@@H]3C(=O)C=C4C[C@@H](O)CC[C@]4(C)[C@H]3CC[C@]12C [7-ketocholesterol, 5-CHOLESTEN-3β-OL-7-ONE, reference compound]	50	–	–	–	–	–	–	–	–	–	–	–	–	–
CC1(C)CC(O[N+](=O)[O-])CC(C)(C)N1[O] [Compound 1]	–	−15.3	−16.7	−20.7	do not produce NO-tolerance in vivo	significant increase	comparable to that of GTN	significant	complete	60	60	75	100	superior activity
CC1(C)CC(CO[N+](=O)[O-])C(C)(C)N1[O] (stereo not drawn) [Compound 2, 3-Nitratomethyl-Proxyl]	–	–	–	–	do not produce NO-tolerance in vivo	–	–	–	–	–	–	–	–	–
